From US11414387B2, “Oxoacridinyl acetic acid derivatives and methods of use” (Stingthera, Inc., priority 2017, dated 2022)

Molecular target: hSTING-CTD (Homo sapiens (Human), UniProt Q86WV6)
Assay: Human STING protein FP competition concentration response assay
Assay type: binding
Settings: not given
Summary of the method: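 Compound, serially diluted 2-fold over 14 concentrations, competes with 2′-Fluo-AHC-c-di-GMP (30 nM) for binding to hSTING-CTD (10 uM) in PBS with 3.35% DMSO at room temperature for 10-20 min. Anisotropy change gives IC50 by sigmoidal four-parameter regression.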

Sequence of hSTING-CTD (Q86WV6 135-379): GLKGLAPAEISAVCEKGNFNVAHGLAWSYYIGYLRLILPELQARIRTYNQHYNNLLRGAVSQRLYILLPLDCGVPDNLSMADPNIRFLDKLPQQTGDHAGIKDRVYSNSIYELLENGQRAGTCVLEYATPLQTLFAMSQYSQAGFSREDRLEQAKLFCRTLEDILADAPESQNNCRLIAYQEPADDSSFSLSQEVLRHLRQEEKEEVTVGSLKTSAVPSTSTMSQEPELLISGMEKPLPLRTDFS

| IC50 | SMILES |
| --- | --- |
| < 100 µM | O=C(O)Cn1c2cc(C3CCCCC3)ccc2c(=O)c2ccc(Cl)c(Cl)c21 [Compound 115] |
| < 100 µM | CC(C)c1ccc2c(=O)c3ccc(Cl)c(Br)c3n(CC(=O)O)c2c1 [Compound 111] |

Molecular target: mSTING (Mus musculus, UniProt Q3TBT3)
Assay: Radiometric filtration binding competition assay, mSTING
Settings: not given

| IC50 | SMILES |
| --- | --- |
| < 20 µM | O=C(O)Cn1c2cc(C3CCCCC3)ccc2c(=O)c2ccc(Cl)c(Cl)c21 [Compound 115] |
| < 20 µM | COc1c(Cl)ccc2c(=O)c3ccc(Nc4ccccc4)cc3n(CC(=O)O)c12 [Compound 207] |
| 20 to 100 µM | CC(C)c1ccc2c(=O)c3ccc(Cl)c(Br)c3n(CC(=O)O)c2c1 [Compound 111] |
| < 20 µM | CC1(C)CC=C(c2ccc3c(=O)c4ccc(Cl)c(Cl)c4n(CC(=O)O)c3c2)CC1 [Compound 159] |

Molecular target: hSTING-WT (Homo sapiens (Human), UniProt Q86WV6, H232R)
Assay: Radiometric filtration binding competition assay, hSTING-WT
Settings: not given

Sequence of hSTING-WT (Q86WV6 140-379 H232R): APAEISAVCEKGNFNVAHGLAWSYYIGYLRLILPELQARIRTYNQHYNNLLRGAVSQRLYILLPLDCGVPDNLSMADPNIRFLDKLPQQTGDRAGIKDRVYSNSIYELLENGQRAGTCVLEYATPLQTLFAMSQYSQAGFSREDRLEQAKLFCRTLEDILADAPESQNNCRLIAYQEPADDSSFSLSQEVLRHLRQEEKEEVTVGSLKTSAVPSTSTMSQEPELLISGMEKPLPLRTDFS

| IC50 | SMILES |
| --- | --- |
| 20 to 100 µM | O=C(O)Cn1c2cc(C3CCCCC3)ccc2c(=O)c2ccc(Cl)c(Cl)c21 [Compound 115] |
| < 20 µM | COc1c(Cl)ccc2c(=O)c3ccc(Nc4ccccc4)cc3n(CC(=O)O)c12 [Compound 207] |
| 20 to 100 µM | CC(C)c1ccc2c(=O)c3ccc(Cl)c(Br)c3n(CC(=O)O)c2c1 [Compound 111] |
| 20 to 100 µM | CC1(C)CC=C(c2ccc3c(=O)c4ccc(Cl)c(Cl)c4n(CC(=O)O)c3c2)CC1 [Compound 159] |

Molecular target: T1, hSTING-HAQ (Homo sapiens (Human), UniProt Q86WV6, G230A/H232R/R293Q)
Assay: Radiometric filtration binding competition assay, hSTING-HAQ
Settings: not given

T1 sequence (Q86WV6 140-379 G230A/H232R/R293Q): as the sequence (Q86WV6 140-379 H232R) above, with G91A, R154Q counted along it

| IC50 | SMILES |
| --- | --- |
| 100 to 300 µM | O=C(O)Cn1c2cc(C3CCCCC3)ccc2c(=O)c2ccc(Cl)c(Cl)c21 [Compound 115] |
| 20 to 100 µM | COc1c(Cl)ccc2c(=O)c3ccc(Nc4ccccc4)cc3n(CC(=O)O)c12 [Compound 207] |
| 100 to 300 µM | CC(C)c1ccc2c(=O)c3ccc(Cl)c(Br)c3n(CC(=O)O)c2c1 [Compound 111] |
| 20 to 100 µM | CC1(C)CC=C(c2ccc3c(=O)c4ccc(Cl)c(Cl)c4n(CC(=O)O)c3c2)CC1 [Compound 159] |

Molecular target: mSTING-R232 (Mus musculus, UniProt Q3TBT3)
Assay: STING differential scanning fluorimetry (DSF) assay, mouse STING
Settings: net shift in melting temperature

| MOUSE DSF_6xHIS-SUMO Tm Shift (° C.) | SMILES |
| --- | --- |
| D (“D” > 15° C.) | O=C(O)Cn1c2cc(C3CCCCC3)ccc2c(=O)c2ccc(Cl)c(Cl)c21 [Compound 115] |
| D (“D” > 15° C.) | COc1c(Cl)ccc2c(=O)c3ccc(Nc4ccccc4)cc3n(CC(=O)O)c12 [Compound 207] |
| C (“C” = 5-15° C.) | CC(C)c1ccc2c(=O)c3ccc(Cl)c(Br)c3n(CC(=O)O)c2c1 [Compound 111] |
| C (“C” = 5-15° C.) | CC1(C)CC=C(c2ccc3c(=O)c4ccc(Cl)c(Cl)c4n(CC(=O)O)c3c2)CC1 [Compound 159] |

Molecular target: hSTING-R232 (Homo sapiens (Human), UniProt Q86WV6, H232R)
Assay: STING differential scanning fluorimetry (DSF) assay, WT human STING
Settings: WT (R232) human STING aa140-379, net shift in melting temperature

Sequence of hSTING-R232 (Q86WV6 140-379 H232R): as the sequence (Q86WV6 140-379 H232R) above

| WT_DSF_hSWAT Tm Shift (° C.) | SMILES |
| --- | --- |
| C (“C” = 2-7° C,) | O=C(O)Cn1c2cc(C3CCCCC3)ccc2c(=O)c2ccc(Cl)c(Cl)c21 [Compound 115] |
| D (“D” > 7° C.) | COc1c(Cl)ccc2c(=O)c3ccc(Nc4ccccc4)cc3n(CC(=O)O)c12 [Compound 207] |
| D (“D” > 7° C.) | CC(C)c1ccc2c(=O)c3ccc(Cl)c(Br)c3n(CC(=O)O)c2c1 [Compound 111] |
| A (“A” < 0° C.) | CC1(C)CC=C(c2ccc3c(=O)c4ccc(Cl)c(Cl)c4n(CC(=O)O)c3c2)CC1 [Compound 159] |

Molecular target: T1, hSTING-HAQ
Assay: STING differential scanning fluorimetry (DSF) assay, HAQ human STING
Settings: HAQ human STING aa140-379, net shift in melting temperature
Method: A STING DSF assay was performed to determine protein thermostability shift in response to small molecule ligand binding. A STING thermostability shift assay based on differential scanning fluorimetry was used to measure (1) the net shift in melting temperature (ΔTm)between the apo and ligand-bound states of the STING protein and (2) the concentration of the thermal denaturation transition (EC50) as a surrogate measure of binding affinity (K). […] Protein in assay buffer was transferred to a 384 well plate and incubated with the hydrophobic fluorescent dye SYBR Orange. A temperature ramp was applied to the plate and the resulting dye fluorescence was plotted as a function of temperature. The first derivative of this function (dF/dT) was then used to extrapolate the melting temperature of the protein at various concentrations of compound and determine the thermal denaturation profile of a protein/compound complex.
• 1. Protein construct (affinity tag removal vs SUMO-fusion construct) • 2. Protein concentration • 3. Dye concentration • 4. Buffer • 5. Thermal ramp velocity • 6. DMSO tolerance • 7. Compound titration parameters • 8. […] 5 μM purified Target STING Protein • 3. 8 μM Sypro Orange Dye • 4. Buffer: 100 mM NaCl, 30 mM HEPES, pH 7.5 • 5. Thermal Ramp: 0.5° C./min • 6. <1% DMSO • 7. 11 point, 2 fold dilution, duplicate, 300 μM high concentrations • 8.

| HAQ_DSF_hSWAT Tm Shift (° C.) | SMILES |
| --- | --- |
| C (“C” = 2-7° C,) | O=C(O)Cn1c2cc(C3CCCCC3)ccc2c(=O)c2ccc(Cl)c(Cl)c21 [Compound 115] |
| D (“D” > 7° C.) | COc1c(Cl)ccc2c(=O)c3ccc(Nc4ccccc4)cc3n(CC(=O)O)c12 [Compound 207] |
| D (“D” > 7° C.) | CC(C)c1ccc2c(=O)c3ccc(Cl)c(Br)c3n(CC(=O)O)c2c1 [Compound 111] |
| A (“A” < 0° C.) | CC1(C)CC=C(c2ccc3c(=O)c4ccc(Cl)c(Cl)c4n(CC(=O)O)c3c2)CC1 [Compound 159] |

Molecular target: STING protein (Homo sapiens (Human), UniProt Q86WV6, H232R)
Assay: Cell based reporter assay of IRF activation (IRF-luciferase), THP1-dual-KI R232
Settings: read-out: THP1-dual-KI R232_IRF(Luciferase)_Activity Maximum measured (%)

Sequence of STING protein (Q86WV6 whole entry H232R): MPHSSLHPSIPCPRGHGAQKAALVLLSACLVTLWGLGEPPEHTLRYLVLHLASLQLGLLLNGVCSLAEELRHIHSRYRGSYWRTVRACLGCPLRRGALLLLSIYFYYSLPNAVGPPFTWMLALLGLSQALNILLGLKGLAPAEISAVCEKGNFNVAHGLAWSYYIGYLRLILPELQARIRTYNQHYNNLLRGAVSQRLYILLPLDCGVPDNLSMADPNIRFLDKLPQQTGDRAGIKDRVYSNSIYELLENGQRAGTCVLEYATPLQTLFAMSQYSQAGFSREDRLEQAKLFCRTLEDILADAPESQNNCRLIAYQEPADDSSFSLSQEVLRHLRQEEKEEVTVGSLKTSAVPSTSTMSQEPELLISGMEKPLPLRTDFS

| Emax | SMILES |
| --- | --- |
| 25 to 50% | O=C(O)Cn1c2cc(C3CCCCC3)ccc2c(=O)c2ccc(Cl)c(Cl)c21 [Compound 115] |
| > 50% | COc1c(Cl)ccc2c(=O)c3ccc(Nc4ccccc4)cc3n(CC(=O)O)c12 [Compound 207] |
| > 50% | CC(C)c1ccc2c(=O)c3ccc(Cl)c(Br)c3n(CC(=O)O)c2c1 [Compound 111] |
| 5 to 25% | CC1(C)CC=C(c2ccc3c(=O)c4ccc(Cl)c(Cl)c4n(CC(=O)O)c3c2)CC1 [Compound 159] |
